{
  "source": "patent US10907197B2",
  "about": "“Probes for imaging huntingtin protein” (CHDI Foundation, Inc., priority 2014, dated 2021)",
  "data": [
    {"target": "T1, Q46 protein aggregates (Homo sapiens, UniProt P42858, INS38QQQQQQQQQQQQQQQQQQQQQQQQQ)", "T1 construct": "33 μM GST-Q46 was incubated with 150 μg/mL thrombin in assay buffer (150 mM NaCl, 50 mM Tris pH 8.0) and 2 mM CaCl2 for 16 hr at 37° C; fused on or other part: GST at the N-terminus", "T1 sequence (P42858 with tags, fused parts or gaps with the stated changes)": "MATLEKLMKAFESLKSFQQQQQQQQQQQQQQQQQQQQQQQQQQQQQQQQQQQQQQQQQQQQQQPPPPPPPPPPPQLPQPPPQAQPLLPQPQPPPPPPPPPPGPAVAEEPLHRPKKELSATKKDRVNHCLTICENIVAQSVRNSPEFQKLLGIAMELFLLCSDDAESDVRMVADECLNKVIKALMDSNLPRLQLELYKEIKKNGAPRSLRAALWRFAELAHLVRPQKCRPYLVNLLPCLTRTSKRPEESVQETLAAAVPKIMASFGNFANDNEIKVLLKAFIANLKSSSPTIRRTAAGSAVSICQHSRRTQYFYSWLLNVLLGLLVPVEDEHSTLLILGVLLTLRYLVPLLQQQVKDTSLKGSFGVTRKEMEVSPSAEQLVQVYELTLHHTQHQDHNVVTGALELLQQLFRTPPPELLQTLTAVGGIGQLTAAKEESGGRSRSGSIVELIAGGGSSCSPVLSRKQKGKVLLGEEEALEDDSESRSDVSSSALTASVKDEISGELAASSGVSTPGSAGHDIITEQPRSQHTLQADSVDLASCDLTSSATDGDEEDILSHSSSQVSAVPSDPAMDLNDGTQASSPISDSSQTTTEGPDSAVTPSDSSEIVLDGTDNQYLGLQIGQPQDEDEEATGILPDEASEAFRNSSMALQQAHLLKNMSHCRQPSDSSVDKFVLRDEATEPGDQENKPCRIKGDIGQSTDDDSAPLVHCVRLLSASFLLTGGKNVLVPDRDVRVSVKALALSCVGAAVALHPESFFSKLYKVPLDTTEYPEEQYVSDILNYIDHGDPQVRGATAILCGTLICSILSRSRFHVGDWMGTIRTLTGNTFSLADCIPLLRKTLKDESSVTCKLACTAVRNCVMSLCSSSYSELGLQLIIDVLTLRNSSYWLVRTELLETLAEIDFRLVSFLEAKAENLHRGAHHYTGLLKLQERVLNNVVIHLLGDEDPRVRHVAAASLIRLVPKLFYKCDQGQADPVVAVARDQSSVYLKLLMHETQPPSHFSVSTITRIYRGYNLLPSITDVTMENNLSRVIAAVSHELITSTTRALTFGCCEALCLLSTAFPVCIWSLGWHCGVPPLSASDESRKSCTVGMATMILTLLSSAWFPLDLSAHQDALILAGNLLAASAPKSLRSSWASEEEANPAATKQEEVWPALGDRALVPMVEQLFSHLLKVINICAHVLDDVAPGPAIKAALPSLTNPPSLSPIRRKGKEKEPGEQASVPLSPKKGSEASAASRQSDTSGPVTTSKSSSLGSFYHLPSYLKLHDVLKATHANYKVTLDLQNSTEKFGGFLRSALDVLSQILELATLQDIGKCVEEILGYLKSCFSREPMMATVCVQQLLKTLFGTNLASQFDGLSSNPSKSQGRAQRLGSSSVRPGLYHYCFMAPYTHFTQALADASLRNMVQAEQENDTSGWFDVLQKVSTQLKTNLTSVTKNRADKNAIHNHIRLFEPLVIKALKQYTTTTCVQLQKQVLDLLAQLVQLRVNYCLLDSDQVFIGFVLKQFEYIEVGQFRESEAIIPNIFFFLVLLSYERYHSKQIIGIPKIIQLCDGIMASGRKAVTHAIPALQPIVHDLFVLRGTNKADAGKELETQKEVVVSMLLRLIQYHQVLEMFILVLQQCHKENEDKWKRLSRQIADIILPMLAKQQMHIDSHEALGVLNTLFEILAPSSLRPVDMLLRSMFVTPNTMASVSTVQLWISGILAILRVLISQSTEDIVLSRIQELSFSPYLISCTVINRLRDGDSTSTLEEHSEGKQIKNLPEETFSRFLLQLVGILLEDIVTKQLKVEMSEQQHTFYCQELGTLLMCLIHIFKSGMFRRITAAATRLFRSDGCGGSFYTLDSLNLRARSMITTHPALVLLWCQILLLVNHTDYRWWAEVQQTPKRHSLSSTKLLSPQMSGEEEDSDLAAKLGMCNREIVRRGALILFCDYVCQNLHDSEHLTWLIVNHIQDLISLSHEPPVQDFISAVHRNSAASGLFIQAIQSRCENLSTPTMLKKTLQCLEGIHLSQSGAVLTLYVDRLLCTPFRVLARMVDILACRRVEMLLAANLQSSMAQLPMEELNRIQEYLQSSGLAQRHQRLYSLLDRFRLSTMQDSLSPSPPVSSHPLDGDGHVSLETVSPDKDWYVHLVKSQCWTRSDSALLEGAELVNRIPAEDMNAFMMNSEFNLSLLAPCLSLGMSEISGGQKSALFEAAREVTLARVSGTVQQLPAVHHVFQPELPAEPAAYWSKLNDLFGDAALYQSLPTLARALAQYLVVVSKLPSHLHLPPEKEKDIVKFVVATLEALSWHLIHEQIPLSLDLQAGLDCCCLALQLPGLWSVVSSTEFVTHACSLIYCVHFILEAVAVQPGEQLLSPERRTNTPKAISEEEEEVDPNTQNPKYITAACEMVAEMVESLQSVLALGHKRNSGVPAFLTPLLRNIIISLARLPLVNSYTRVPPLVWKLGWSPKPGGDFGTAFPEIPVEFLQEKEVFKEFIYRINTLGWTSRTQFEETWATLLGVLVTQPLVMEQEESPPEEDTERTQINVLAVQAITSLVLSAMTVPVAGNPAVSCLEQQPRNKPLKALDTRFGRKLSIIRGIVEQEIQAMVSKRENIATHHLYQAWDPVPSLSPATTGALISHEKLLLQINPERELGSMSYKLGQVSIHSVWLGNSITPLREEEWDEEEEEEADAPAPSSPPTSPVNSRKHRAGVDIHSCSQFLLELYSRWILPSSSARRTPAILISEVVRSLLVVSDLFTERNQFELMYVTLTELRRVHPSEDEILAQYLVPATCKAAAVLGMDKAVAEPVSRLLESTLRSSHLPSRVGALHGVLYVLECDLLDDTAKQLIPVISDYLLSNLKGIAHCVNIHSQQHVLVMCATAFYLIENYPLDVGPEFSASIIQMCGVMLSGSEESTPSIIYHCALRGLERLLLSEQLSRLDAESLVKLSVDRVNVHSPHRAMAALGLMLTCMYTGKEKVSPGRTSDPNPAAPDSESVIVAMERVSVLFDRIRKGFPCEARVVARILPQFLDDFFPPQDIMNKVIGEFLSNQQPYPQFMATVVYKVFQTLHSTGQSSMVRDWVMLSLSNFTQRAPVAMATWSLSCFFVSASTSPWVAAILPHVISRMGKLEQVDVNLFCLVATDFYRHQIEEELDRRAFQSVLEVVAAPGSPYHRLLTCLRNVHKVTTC", "assay": "Q46 Radioligand Binding Assay (RBA)", "settings": "displacement of 10 nM [3H3]MK-3328 from 5 μM Q46 protein aggregates, 60 min at 37° C.", "description": "Q46 Radioligand Binding Assay\nFor radioligand binding assays (RBA) GST-Q46 protein was generated based on a previous publication (Scherzinger et al. Cell, Vol. 90, 549-558, Aug. 8, 1997). For experiments 33 μM GST-Q46 was incubated with 150 μg/mL thrombin in assay buffer (150 mM NaCl, 50 mM Tris pH 8.0) and 2 mM CaCl2 for 16 hr at 37° C. Aggregated Q46 was pelleted by centrifugation for 5 min at 13,000 rpm in a bench top centrifuge and re-dissolved in the same volume of assay buffer. Test compounds were prepared by titration in DMSO at 11 concentrations from 33 μM to 1 nM. For the RBA, Q46 protein aggregates and test compounds were pre-incubated in assay buffer for 20 min at room temperature, in 140 μL/well in a 96-well plate (pp, round bottom). Then, ligand was added in 10 μL/well and incubated for 60 min at 37° C. Final assay concentrations were 1 μM to 30 pM test compound, 5 μM Q46 protein (equivalent monomer concentration) and 10 nM ligand [^3H3]MK-3328 (Harrision et al., ACS Med. Chem. Lett., 2 (2011), pp 498-502). Samples were transferred onto GF/B filter plates and washed 2× with 200 μL PBS using a Filtermate Harvester. After drying filter plates for 1 hr at 37° C., the back of the plates was sealed with foil and 30 μL/well scintillation fluid (Packard MicroScint 40) was added, incubated for incubated for 15 min in the dark and counted in a TopCount reader. […] IC50 values were determined with a sigmoidal inhibition model with four variables (top, bottom, slope, IC50) in a global fit using the normalized replicate data.", "units": {"IC50": "nM"}, "values": [
      {"smiles": "COc1ccc2nc(-c3ncccc3Br)sc2c1", "note": "[2-(3-bromopyridin-2-yl)-6-methoxy-1,3-benzothiazole]", "IC50": "< 100"},
      {"smiles": "Oc1ccc2nc(-c3ccncc3Br)sc2c1", "note": "[2-(3-bromopyridin-4-yl)-1,3-benzothiazol-6-ol]", "IC50": "100 to 500"},
      {"smiles": "FCCOc1ccc2nc(-c3ccncc3Br)sc2c1", "note": "[2-(3-bromopyridin-4-yl)-6-(2-fluoroethoxy)-1,3-benzothiazole]", "IC50": "< 100"},
      {"smiles": "COc1ccc2nc(-c3ccncc3Br)sc2c1", "note": "[2-(3-bromopyridin-4-yl)-6-methoxy-1,3-benzothiazole]", "IC50": "< 100"},
      {"smiles": "COc1ccc2nc(-c3ccncc3F)sc2c1", "note": "[2-(3-fluoropyridin-4-yl)-6-methoxy-1,3-benzothiazole]", "IC50": "< 100"},
      {"smiles": "Cc1cccc(-c2nc3cc(N)ccc3o2)c1", "note": "[2-(3-methylphenyl)-1,3-benzoxazol-5-amine]", "IC50": "100 to 500"},
      {"smiles": "Cc1cccc(-c2nc3cc(N)cnc3o2)c1", "note": "[2-(3-methylphenyl)-[1,3]oxazolo[5,4-b]pyridin-6-amine]", "IC50": "> 500"},
      {"smiles": "COc1ccc2oc(-c3ncccc3C#N)cc2c1", "note": "[2-(5-methoxy-1-benzofuran-2-yl)pyridine-3-carbonitrile]", "IC50": "< 100"},
      {"smiles": "COc1ccc2nc(-c3ccccc3C#N)sc2c1", "note": "[2-(6-methoxy-1,3-benzothiazol-2-yl)benzonitrile]", "IC50": "< 100"},
      {"smiles": "COc1ccc2nc(-c3ncccc3C#N)sc2c1", "note": "[2-(6-methoxy-1,3-benzothiazol-2-yl)pyridine-3-carbonitrile]", "IC50": "< 100"},
      {"smiles": "COc1ccc2nc(-c3ccccc3C#N)oc2c1", "note": "[2-(6-methoxy-1,3-benzoxazol-2-yl)benzonitrile]", "IC50": "< 100"},
      {"smiles": "Nc1ccc2oc(-c3cccnc3)nc2c1", "note": "[2-(pyridin-3-yl)-1,3-benzoxazol-5-amine]", "IC50": "> 500"},
      {"smiles": "COc1ccc2oc(-c3cccc(CN(C)C)c3C#N)cc2c1", "note": "[2-[(dimethylamino)methyl]-6-(5-methoxy-1-benzofuran-2-yl)benzonitrile]", "IC50": "100 to 500"},
      {"smiles": "COc1ccc2oc(-c3cccc(Br)c3C#N)cc2c1", "note": "[2-bromo-6-(5-methoxy-1-benzofuran-2-yl)benzonitrile]", "IC50": "< 100"},
      {"smiles": "COc1ncc2cc(-c3ccccc3C#N)oc2n1", "note": "[2-{2-methoxyfuro[2,3-d]pyrimidin-6-yl}benzonitrile]", "IC50": "< 100"},
      {"smiles": "N#Cc1ccccc1-c1nc2cc3c(cc2o1)OCO3", "note": "[2-{4,6,10-trioxa-12-azatricyclo[7.3.0.0^3,^7]dodeca-1(9),2,7,11-tetraen-11-yl}benzonitrile]", "IC50": "< 100"},
      {"smiles": "N#Cc1ccccc1-c1cc2cc(Br)cnc2o1", "note": "[2-{5-bromofuro[2,3-b]pyridin-2-yl}benzonitrile]", "IC50": "< 100"},
      {"smiles": "COc1cnc2oc(-c3ccccc3C#N)cc2c1", "note": "[2-{5-methoxyfuro[2,3-b]pyridin-2-yl}benzonitrile]", "IC50": "< 100"},
      {"smiles": "COc1cc2cc(-c3ccccc3C#N)oc2cn1", "note": "[2-{5-methoxyfuro[2,3-c]pyridin-2-yl}benzonitrile]", "IC50": "< 100"},
      {"smiles": "N#CC1=C(c2cc3cc(O)ccc3o2)N2CCN=C2S1", "note": "[3-(5-hydroxy-1-benzofuran-2-yl)-5H,6H-imidazo[2,1-b][1,3]thiazole-2-carbonitrile]", "IC50": "< 100"},
      {"smiles": "COc1ccc2oc(C3=C(C#N)SC4=NCCN43)cc2c1", "note": "[3-(5-methoxy-1-benzofuran-2-yl)-5H,6H-imidazo[2,1-b][1,3]thiazole-2-carbonitrile]", "IC50": "< 100"},
      {"smiles": "COc1ccc2nc(-c3cnccc3C#N)sc2c1", "note": "[3-(6-methoxy-1,3-benzothiazol-2-yl)pyridine-4-carbonitrile]", "IC50": "< 100"},
      {"smiles": "C#Cc1cnccc1-c1cc2cc(OC)ccc2o1", "note": "[3-ethynyl-4-(5-methoxy-1-benzofuran-2-yl)pyridine]", "IC50": "< 100"},
      {"smiles": "COc1ccc2oc(-c3ccncc3I)cc2c1", "note": "[3-iodo-4-(5-methoxy-1-benzofuran-2-yl)pyridine]", "IC50": "100 to 500"},
      {"smiles": "N#Cc1cnccc1-c1nc2ccccc2s1", "note": "[4-(1,3-benzothiazol-2-yl)pyridine-3-carbonitrile]", "IC50": "> 500"},
      {"smiles": "COc1ccc2oc(-c3ccncc3)c(Br)c2c1", "note": "[4-(3-bromo-5-methoxy-1-benzofuran-2-yl)pyridine]", "IC50": "< 100"},
      {"smiles": "N#Cc1cnccc1-c1cc2cc(O)ccc2o1", "note": "[4-(5-hydroxy-1-benzofuran-2-yl)pyridine-3-carbonitrile]", "IC50": "< 100"},
      {"smiles": "COc1ccc2sc(-c3ccncc3C#N)nc2c1", "note": "[4-(5-methoxy-1,3-benzothiazol-2-yl)pyridine-3-carbonitrile]", "IC50": "100 to 500"},
      {"smiles": "COc1ccc2oc(-c3cccc4[nH]ncc34)cc2c1", "note": "[4-(5-methoxy-1-benzofuran-2-yl)-1H-indazole]", "IC50": "< 100"},
      {"smiles": "COc1ccc2oc(-c3ccncc3C)cc2c1", "note": "[4-(5-methoxy-1-benzofuran-2-yl)-3-methylpyridine]", "IC50": "100 to 500"},
      {"smiles": "COc1ccc2oc(-c3ccncc3C#N)cc2c1", "note": "[4-(5-methoxy-1-benzofuran-2-yl)pyridine-3-carbonitrile]", "IC50": "< 100"},
      {"smiles": "COc1ccc2oc(-c3ccncc3C#N)c(C)c2c1", "note": "[4-(5-methoxy-3-methyl-1-benzofuran-2-yl)pyridine-3-carbonitrile]", "IC50": "< 100"},
      {"smiles": "CNc1cnccc1-c1nc2ccc(OC)cc2s1", "note": "[4-(6-methoxy-1,3-benzothiazol-2-yl)-N-methylpyridin-3-amine]", "IC50": "100 to 500"},
      {"smiles": "COc1ccc2nc(-c3ccc(C#N)cc3)sc2c1", "note": "[4-(6-methoxy-1,3-benzothiazol-2-yl)benzonitrile]", "IC50": "< 100"},
      {"smiles": "COc1ccc2nc(-c3ccnc(C#N)c3)sc2c1", "note": "[4-(6-methoxy-1,3-benzothiazol-2-yl)pyridine-2-carbonitrile]", "IC50": "< 100"},
      {"smiles": "COc1ccc2nc(-c3ccncc3C#N)sc2c1", "note": "[4-(6-methoxy-1,3-benzothiazol-2-yl)pyridine-3-carbonitrile]", "IC50": "100 to 500"},
      {"smiles": "COc1ccc2nc(-c3ccncc3C#N)oc2c1", "note": "[4-(6-methoxy-1,3-benzoxazol-2-yl)pyridine-3-carbonitrile]", "IC50": "< 100"},
      {"smiles": "COc1ccc2nc(-c3ccncc3C#N)[nH]c2c1", "note": "[4-(6-methoxy-1H-1,3-benzodiazol-2-yl)pyridine-3-carbonitrile]", "IC50": "> 500"},
      {"smiles": "COc1ccc2cc(-c3ccncc3C#N)ccc2c1", "note": "[4-(6-methoxynaphthalen-2-yl)pyridine-3-carbonitrile]", "IC50": "100 to 500"},
      {"smiles": "COc1ccc2nc(-c3ccncc3C#N)ccc2c1", "note": "[4-(6-methoxyquinolin-2-yl)pyridine-3-carbonitrile]", "IC50": "100 to 500"},
      {"smiles": "N#Cc1cnccc1-c1cc2cc(OCCF)ccc2o1", "note": "[4-[5-(2-fluoroethoxy)-1-benzofuran-2-yl]pyridine-3-carbonitrile]", "IC50": "< 100"},
      {"smiles": "N#Cc1cnccc1-c1cc2cc(OCCO)ccc2o1", "note": "[4-[5-(2-hydroxyethoxy)-1-benzofuran-2-yl]pyridine-3-carbonitrile]", "IC50": "100 to 500"},
      {"smiles": "COCCOc1ccc2oc(-c3ccncc3C#N)cc2c1", "note": "[4-[5-(2-methoxyethoxy)-1-benzofuran-2-yl]pyridine-3-carbonitrile]", "IC50": "< 100"},
      {"smiles": "COCOc1ccc2oc(-c3cn(C)nc3C#N)cc2c1", "note": "[4-[5-(methoxymethoxy)-1-benzofuran-2-yl]-1-methyl-1H-pyrazole-3-carbonitrile]", "IC50": "< 100"},
      {"smiles": "COCOc1ccc2oc(-c3ccncc3C#N)cc2c1", "note": "[4-[5-(methoxymethoxy)-1-benzofuran-2-yl]pyridine-3-carbonitrile]", "IC50": "< 100"},
      {"smiles": "N#Cc1cnccc1-c1nc2ccc(OCCF)cc2s1", "note": "[4-[6-(2-fluoroethoxy)-1,3-benzothiazol-2-yl]pyridine-3-carbonitrile]", "IC50": "< 100"},
      {"smiles": "CN(C)c1ccc2nc(-c3ccncc3C#N)sc2c1", "note": "[4-[6-(dimethylamino)-1,3-benzothiazol-2-yl]pyridine-3-carbonitrile]", "IC50": "< 100"}
    ]}
  ]
}
